Results reported in US6699842B1, “Dominant negative deletion mutants of C-jun and their use in the prevention and treatment of cancer” (The United States of America as represented by the …, priority 1994, dated 2004).

Assays:
Type in all cases: cell-based, mouse
[1] = test system: AP-1; assay: CAT assay with stromelysin promoter reporter P750TRCAT (AP-1 dependent) in JB6 P+ Cl 41 cells; conditions: for inhibition of TPA-induced CAT activity: 8 hours
Text: The plasmid constructs used in the following examples were as follows: P750TRCAT is a CAT reporter construct containing 750 bp of the rat stromelysin promoter driving the heterogolous gene chloramphenicol acetyl-transferase (CAT). This construct contains an AP-1 binding sequence at position −70 (Matrisian, L. M. et al. (1991) Am. J. Medic. Sci., 302: 157-162, Kerr, L. D. et al. (1988) Science., 242: 1424-1427, McDonnell, S. E. et al. (1990) Mol. Cell. Biol. 105 4284-4293). The mTRE-CAT reporter is a site-directed mutant with 2 point mutations in the AP-1 site (Matrisian, L. M. et al. (1991) Am. J. Medic. Sci., 302: 157-162) and the mPEA3-CAT reporter is a site-directed mutant in which point mutations in each of the PEA3 sites at position −208 to −200 and −191 to −199 of the stromelysin promoter were introduced using a protocol provided with the site-directed mutagenesis kit of Amersham Corp. (Arlington Heights, Ill.) and an oligonucleotide having SEQ ID NO.:1 GCAAGAAGCATTTCTTGG.
In brief, JB6 Cl 41 (P^+) cells transfected for 4-5 hours using a standard calcium phosphate transfection procedure (Sambrook, J. et al. (1989) “Molecular Cloning, A Laboratory Manual” Cold Spring Harbor Laboratory Press, Cold Spring Harbor, N.Y.) with 10 μg of one of three CAT reporter plasmid DNAs, P750TRCAT, mTRE-CAT or mPEA3-CAT and 10 μg of sheared genomic DNA isolated from Cl 41 cells were then changed to medium containing 2% fetal calf serum and twenty-four to forty-two hours later, were treated with either 0.1% of DMSO, 10 ng/ml of TPA or 10 ng/ml EGF for eight hours prior to preparation of total cell extracts. CAT enzyme activity was assayed using a diffusion-based CAT assay according to the protocol provided by the manufacturers (New England Nuclear, Del.). The results are expressed as the rate of accumulation of [^14C]-acetylated product relative to solvent controls (DMSO).
In order to determine whether TPA-induced CAT activity in JB6 P^+ cells is capable of being abolished, TPA induced CAT activity was measured in the presence of the known AP-1 inhibitors retinoic acid (RA) and fluocinolone acetonide (FA). In brief, JB6 P^+ Cl 41 cells were transfected with 10 μg of P750TRCAT and 10 μg of sheared genomic DNA from Cl 41 cells as in Example 1. 24-42 hours after transfection, cells were then exposed for 8 hours to either 0.1% DMSO, […] (TPA), 10^−7 M fluocinolone acetonide (FA) in the absence of 10 ng/ml TPA (FA7), 10^−9, 10^−8 and 10^−7 M FA in the presence of 10 ng/ml TPA (TFA9, TFA8, TFA7, respectively), 10^−5 M retinoic acid (RA) in the absence of 10 ng/ml TPA (RA5), or to 10^−7, 10^−6 and 10^−5 M RA in the presence of 10 ng/ml TPA (TRA7, TRA6, TRA5 respectively). Following the above treatments, total cell extracts were prepared and CAT enzyme activity was assayed as in Example 1. As before, the results are expressed as the rate of accumulation of ^14C-acetylated product relative to solvent controls.
In order to determine whether an overexpressed TAM67 protein could repress TPA-induced CAT activity in JB6 P^+ cells, eight TAM67 clonal transfectants (M1-M8) and three neo-only clonal transfectants (N1-N3) were transfected with 10 μg of P750TRCAT reporter plasmid using the standard calcium phosphate protocol described in. Example 1. Forty two hours after transfection with P750TRCAT, the cells were exposed to either 0.01% DMSO (closed bar, FIG. 5A), or 10 ng/ml TPA (crossed-hatched bar, FIG. 5A) or, to water (closed bar, FIG. 5B) or 10 ng/ml EGF (cross-hatched bar, FIG. 5B) for eight hours. Total cell extracts were then prepared from the treated cells and assayed for CAT activity as described in Example 1.

[2] = test system: c-Jun; assay: immunoprecipitation and densitometry of c-Jun protein in stable JB6 transfectants; conditions: 10 ng/ml, fifteen hours, TAM67 or Neo-only transfectants
Description: Three TAM67 clonal transfectants (M4, M3, M6) and one neo-only clonal transfectant (N1) were treated for fifteen hours with either 10 ng/ml TPA (T), 10 ng/ml EGF (E), or 0.1% DMSO (D) prior to metabolic labelling for two hours with 0.2 mCi/ml ^35S -methionine (Amersham, Rockford, Ill.) (Sun, Y. et al. (1993) Mol. Carcinogenesis, 8: 49-57). Cellular lysates were then collected and immunoprecipitations using polyclonal rabbit c-jun antibody (AB-1 antibody, Oncogene Science) were carried out overnite at 4° C. (Sun et al. (1993)). These immunoprecipitates were then analyzed by electrophoresis on 12.5% SDS polyacrylamide gels and these gels are shown in FIG. 4.

[3] = test system: JB6 P+ Cl 41 cells; assay: soft agar transformation assay, JB6 P+ Cl 41 cells; conditions: 3 ng/ml TPA, 14 days in 0.33% agar, FA 10^−9-10^−7 M, RA 10^−9-10^−6 M
Description: (§1) In order to test whether the same concentration ranges of inhibitors shown in FIGS. 2A and 2B to repress TPA-induced AP-1 activity could also block TPA-induced transformation, a soft agar transformation assay was carried out on JB6 P^+ Cl 41 (cross-hatched bar) or JB6 P^+ Cl 41.5a (closed bar) cells exposed in 0.33% agar for 14 days to 0.01% DMSO alone, 3 ng/ml TPA alone (TPA), 10^−7 or 10^−8 M FA alone (FA7 and FA8, respectively), 10^−6 M RA alone (RA6) 3 ng/ml TPA in the presence of 10^−7-10^−9 M FA (TFA7, TFA8, TFA9) or to 3 ng/ml TPA in 10^−6-10^−9 M retinoic acid (TRA6, TRA7, TRA8, TRA9). Treated cells were scored for colonies after 14 days in agar and transformation response was expressed as the number of soft agar colonies/10^4 suspended cells. […] In agreement with an earlier observation by De Benedetti et al. ((1991) Cancer Res., 51:1158-1164), the sensitivity of Cl 41.5a cells to antipromotion by RA appeared to be greater than that observed with the Cl 41 cells. More importantly, the concentration-dependent range of FA effective in blocking TPA-induced transformation appeared identical to that range which was active in blocking TPA-induced CAT activity by FA (10^−9 M to 10^−7 M FA, see TFA7, TFA8 and TFA9 in FIG. 2A). […]

[4] = test system: JB6 P+ Cl 41.5a cells; assay: soft agar transformation assay, JB6 P+ Cl 41.5a cells; conditions: 3 ng/ml TPA, 14 days in 0.33% agar, FA 10^−9-10^−7 M, RA 10^−9-10^−6 M
Description: as §1

SMILES: CCCCCCCCCCCCCC(=O)O[C@@H]1[C@@H](C)[C@@]2(O)[C@@H](C=C(CO)C[C@]3(O)C(=O)C(C)=C[C@@H]23)[C@@H]2C(C)(C)[C@]12OC(C)=O [TPA, 12-O-tetradecanoyl phorbol 13-acetate]
- increase in AP-1 dependent CAT activity in neo-only transfectants ([1]; 10 ng/ml, eight hours, N1-N3 transfectants, P750TRCAT): 3 to 4.5 fold
- CAT activity relative to uninduced cells, P750TRCAT reporter ([1]; 10 ng/ml, eight hours, P750TRCAT-transfected JB6 P+ Cl 41 cells): about 2 fold
- CAT activity relative to uninduced cells, mPEA3-CAT reporter ([1]; 10 ng/ml, eight hours, mPEA3-CAT-transfected JB6 P+ Cl 41 cells (PEA3 sites mutated)): about 2 fold
- inducibility of CAT activity, mTRE-CAT reporter ([1]; 10 ng/ml, eight hours, mTRE-CAT-transfected cells (AP-1 binding site mutated)): loss of inducibility
- c-Jun protein levels (43 kDa band, densitometric analysis) [2]: no significant differences

SMILES: CC1(C)O[C@@H]2C[C@H]3[C@@H]4C[C@H](F)C5=CC(=O)C=C[C@]5(C)[C@@]4(F)[C@@H](O)C[C@]3(C)[C@]2(C(=O)CO)O1 [FA, Fluocinolone acetonide]
- inhibition of TPA-induced CAT activity ([1]; 10^−9-10^−7 M FA with 10 ng/ml TPA, P750TRCAT): dose-dependent inhibition
- TPA-induced transformation (soft agar colonies/10^4 suspended cells) [3]: blocked TPA-induced transformation in a concentration-dependent manner
- TPA-induced transformation (soft agar colonies/10^4 suspended cells) [4]: blocked TPA-induced transformation in a concentration-dependent manner

SMILES: CC1=C(/C=C/C(C)=C/C=C/C(C)=C/C(=O)O)C(C)(C)CCC1 [RA, retinoic acid]
- inhibition of TPA-induced CAT activity ([1]; 10^−7-10^−5 M RA with 10 ng/ml TPA, P750TRCAT): 90-100%
